Patent US10688197B2, “Non-alcoholic fatty liver regulator 14-3-3 protein” (Korea University Research and Business Foundation, priority 2015, dated 2020)

Key:
[1] = system: primary mouse hepatocytes; test: Triglyceride colorimetric assay in primary mouse hepatocytes; format: cell-based; settings: FIG. 10A
Method: HepG2 cells and primary mouse hepatocytes were separately seeded in a 6-well plate at a density of 4×10^5 cells per each well, and then transfected with GFP-14-3-3β DNA (1 μg) or GFP-14-3-3γ DNA (1 μg) and si-14-3-3β (10 μM, Santa Cruz) or si-14-3-3γ (10 μM, Santa Cruz) using an E-fection plus reagent (Lugen). A ratio of DNA to the E-fection plus reagent was 1:2, and this method was performed according to a manufacturer's manual. After transfection, the cells were treated with 200 μM of oleic acid (OA) for 72 hours, and the amount of triglycerides was measured using a triglyceride colorimetric assay kit (Cayman Chemical). The corresponding cells were washed with ice-cold PBS and then scraped using a standard diluent assay reagent, the scrapping process was repeated using a sonicator 20 times to lyse the cells, and the lysed cells were reacted with an enzyme buffer solution for 15 minutes, followed by measurement using an ELISA reader (Bio-Rad Laboratories, Inc) at a wavelength of 550 nm.

[2] = system: primary mouse hepatocytes; test: Oil Red-O lipid accumulation in primary mouse hepatocytes; format: cell-based; settings: for lipid accumulation by oleic acid: overexpression, 200 μM oleic acid 72 hours, FIG. 9B
Method: (§1) HepG2 cells and primary mouse hepatocytes were separately seeded in a 6-well plate at a density of 4×10^5 cells per each well, and then transfected with GFP-14-3-3β DNA (1 μg) or GFP-14-3-3γ DNA (1 μg) and si-14-3-3β (10 μM, Santa Cruz) or si-14-3-3γ (10 μM, Santa Cruz) using an E-fection plus reagent (Lugen). A ratio of DNA to the E-fection plus reagent was 1:2, and this method was performed according to a manufacturer's manual. […] The stained cells were bleached with 1 ml of isopropanol and analyzed at a wavelength of 550 nm using a DU530 spectrophotometer (Beckman Instruments, Palo Alto, Calif.).

HepG2 cells [3] = test: Oil Red-O lipid accumulation in HepG2 cells; format: cell-based, human; settings: for lipid accumulation by oleic acid: HepG2, overexpression, 200 μM oleic acid 72 hours, FIG. 9B
Method: as §1

HepG2 cells [4] = test: mRNA expression by PCR in HepG2 cells; format: cell-based, human; settings: for mRNA expression of SREBP-1c and FAT/CD36: HepG2, overexpression, 200 μM oleic acid 72 hours, FIG. 7A
Method: For mRNA extraction, the corresponding cells were lysed with 1 ml/well of TRIzol (Invitrogen), 200 μl of chloroform was added thereto and mixed well, the resultant cells were maintained at room temperature for 5 minutes and then centrifuged at 12,000×g and 4° C. for 15 minutes, the obtained supernatant was mixed with 500 μl of isopropanol and then put on ice for 10 minutes, the resulting supernatant was centrifuged at 12,000×g and 4° C. for 15 minutes to remove a supernatant, and then pellets were dissolved with tertiary distilled water treated with diethyl pyrocarbonate (DEPC). 2 μg of mRNA was synthesized into cDNA using a Superscript First Strand cDNA Synthesis Kit (Bioneer, Daejeon, South Korea) and the synthesized cDNA as a template was amplified through polymerase chain reaction (PCR) using primers specific to PPARγ2, 14-3-3β, 14-3-3γ, SREBP-1c, SCD-1, ACC, FABP, FAT/CD36, and β-actin of humans, and was amplified through real-time PCR using primers specific to PPARγ2, 14-3-3β, 14-3-3γ, SREBP-1c, FAT/CD36, and GAPDH of mice. β-actin and GAPDH were used as controls to see whether mRNAs of the respective cells were compared in the same amount.
HepG2 cells were seeded in a 6-well plate at a density of 4×10^5 cells per each well, and then transfected with GFP-14-3-3β DNA (4 μg) or GFP-14-3-3γ DNA (4 μg) using an E-fection plus reagent (Lugen). A ratio of DNA to the E-fection plus reagent was 1:2, and this method was performed according to a manufacturer's manual. After transfection, […], and for mRNA extraction, the corresponding cells were lysed with 1 ml/well of TRIzol (Invitrogen), 200 μl of chloroform was added thereto and mixed well, the resultant cells were maintained at room temperature for 5 minutes and then centrifuged at 12,000×g and 4° C. for 15 minutes, the obtained supernatant was mixed with 500 μl of isopropanol and then put on ice for 10 minutes, and the resulting supernatant was centrifuged at 12,000×g and 4° C. for 15 minutes to remove a supernatant, and then pellets were dissolved with tertiary distilled water treated with diethyl pyrocarbonate (DEPC). 2 μg of mRNA was synthesized into cDNA using a Superscript First Strand cDNA Synthesis Kit (Bioneer, Daejeon, South Korea) and the synthesized cDNA as a template was amplified through polymerase chain reaction (PCR) using primers specific to PPARγ2 (SEQ ID NOS: 1 and 2), 14-3-3β (SEQ ID NOS: 3 and 4), 14-3-3γ (SEQ ID NOS: 5 and 6), SREBP-1c, FAT/CD36, and β-actin of humans, and was amplified through real-time PCR using primers specific to SREBP-1c, FAT/CD36, and GAPDH of mice. β-actin and GAPDH were used as controls to see whether mRNAs of the respective cells were compared in the same amount.

[5] = primary mouse hepatocytes, overexpression, 200 μM oleic acid 72 hours

Molecule: CCCCCCCC/C=C\CCCCCCCC(=O)O [oleic acid]
- triglyceride accumulation ([1]; primary mouse hepatocytes treated with oleic acid): increased
- lipid accumulation ([2]; concentration-dependent treatment of oleic acid, FIG. 9A): increased
- lipid accumulation (HepG2 cells [3]; HepG2, concentration-dependent treatment of oleic acid, FIG. 9A): increased
- mRNA expression of PPARγ2 (HepG2 cells [4]; HepG2, oleic acid concentration-dependent, FIG. 6A): increased
- mRNA expression of lipid metabolism-associated genes (PPARγ2 target genes) (HepG2 cells [4]; HepG2, oleic acid concentration-dependent, FIG. 6C): increased
- mRNA expression amounts of 14-3-3β and 14-3-3γ (HepG2 cells [4]; HepG2, oleic acid treatment, FIG. 6A): no changes

Molecule: 14-3-3β: 14-3-3 isoform protein overexpressed by DNA transfection; increases the transcriptional activity of PPARγ2 by binding to PPARγ2
- triglyceride accumulation [1, 5]: further increased
- lipid accumulation by oleic acid [2]: increased
- lipid accumulation by oleic acid (HepG2 cells [3]): increased
- mRNA expression of SREBP-1c and FAT/CD36 (HepG2 cells [4]): further increased

Molecule: 14-3-3γ: 14-3-3 isoform protein overexpressed by DNA transfection; decreases the transcriptional activity of PPARγ2; proposed active ingredient
- triglyceride accumulation [1, 5]: reduced
- lipid accumulation by oleic acid [2]: reduced
- lipid accumulation by oleic acid (HepG2 cells [3]): reduced
- mRNA expression of SREBP-1c and FAT/CD36 (HepG2 cells [4]): reduced
